ChEMBL document CHEMBL3351363 (J Med Chem, 2014)

Tests used:
[1] = target: T1, Muscarinic acetylcholine receptor M1 (Homo sapiens, UniProt P11229); assay: Positive modulatory activity at human M1 receptor expressed in HEK293T cells assessed as effect on carbachol-induced response by BRET based Gq protein activation assay; type: cell-based, HEK-293T
T1 sequence (P11229 whole entry): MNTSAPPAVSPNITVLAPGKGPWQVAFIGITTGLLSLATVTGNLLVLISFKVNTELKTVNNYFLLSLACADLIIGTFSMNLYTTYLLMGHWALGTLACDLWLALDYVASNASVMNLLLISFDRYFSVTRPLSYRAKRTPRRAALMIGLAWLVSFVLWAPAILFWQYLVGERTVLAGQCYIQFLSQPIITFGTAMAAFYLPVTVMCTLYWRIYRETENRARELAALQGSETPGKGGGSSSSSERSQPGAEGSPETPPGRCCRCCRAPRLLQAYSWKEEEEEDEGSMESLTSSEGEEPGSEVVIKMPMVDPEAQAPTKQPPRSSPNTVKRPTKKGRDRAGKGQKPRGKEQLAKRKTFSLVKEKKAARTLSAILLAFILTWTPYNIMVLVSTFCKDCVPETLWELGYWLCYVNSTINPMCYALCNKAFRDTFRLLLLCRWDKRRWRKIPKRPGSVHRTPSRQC

[2] = target: T1, Muscarinic acetylcholine receptor M1; assay: Displacement of [3H]NMS from human M1 receptor expressed in CHO cells by microplate scintillation counting based radioligand binding assay; type: cell-based
[3] = target: T2, Muscarinic acetylcholine receptor M4 (Homo sapiens, UniProt P08173); assay: Antagonist activity at human M4 receptor expressed in HEK293T cells assessed as inhibition of xanomeline-induced response by BRET based Gq protein engagement assay; type: cell-based, HEK-293T
T2 sequence (P08173 whole entry): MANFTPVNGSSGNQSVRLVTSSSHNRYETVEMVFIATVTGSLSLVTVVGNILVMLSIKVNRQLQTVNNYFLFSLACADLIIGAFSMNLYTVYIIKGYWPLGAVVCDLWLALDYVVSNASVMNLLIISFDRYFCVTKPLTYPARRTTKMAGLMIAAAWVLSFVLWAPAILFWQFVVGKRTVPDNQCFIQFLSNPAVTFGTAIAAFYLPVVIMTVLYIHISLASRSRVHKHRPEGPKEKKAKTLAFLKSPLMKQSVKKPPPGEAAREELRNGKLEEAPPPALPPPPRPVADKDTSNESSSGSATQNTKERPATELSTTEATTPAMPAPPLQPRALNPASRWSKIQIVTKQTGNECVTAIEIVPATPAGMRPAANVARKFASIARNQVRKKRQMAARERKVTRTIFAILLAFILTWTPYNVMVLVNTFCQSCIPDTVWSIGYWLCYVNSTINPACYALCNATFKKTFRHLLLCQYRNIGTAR

[4] = target: T3, Muscarinic acetylcholine receptor M2 (Homo sapiens, UniProt P08172); assay: Displacement of [3H]NMS from human M2 receptor expressed in CHO cells by microplate scintillation counting based radioligand binding assay; type: cell-based
T3 sequence (P08172 whole entry): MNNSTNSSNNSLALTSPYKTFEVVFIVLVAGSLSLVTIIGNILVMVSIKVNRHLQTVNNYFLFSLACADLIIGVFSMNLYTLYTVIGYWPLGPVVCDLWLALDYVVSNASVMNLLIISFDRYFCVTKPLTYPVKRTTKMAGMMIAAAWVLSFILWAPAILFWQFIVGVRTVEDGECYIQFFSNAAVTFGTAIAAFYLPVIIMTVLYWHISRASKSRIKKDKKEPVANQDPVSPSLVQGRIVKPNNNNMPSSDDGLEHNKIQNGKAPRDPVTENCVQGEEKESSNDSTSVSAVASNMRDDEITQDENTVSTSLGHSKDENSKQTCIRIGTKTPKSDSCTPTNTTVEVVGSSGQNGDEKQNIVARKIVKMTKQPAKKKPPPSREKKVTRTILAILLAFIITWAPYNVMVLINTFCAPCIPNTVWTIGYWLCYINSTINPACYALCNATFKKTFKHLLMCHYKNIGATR

[5] = target: T2, Muscarinic acetylcholine receptor M4; assay: Antagonist activity at human M4 receptor expressed in HEK293T cells assessed as inhibition of carbachol-induced response by BRET based Gq protein engagement assay; type: cell-based, HEK-293T
[6] = target: T4, Muscarinic acetylcholine receptor M1 (Homo sapiens) (UniProt P11229); assay: Agonist activity at human M1 receptor expressed in HEK293T cells by BRET based beta-arrestin engagement assay relative to carbachol; type: cell-based; settings: HEK-293T
T4 sequence (whole entry): T1 sequence (P11229 whole entry)

[7] = target: T2, Muscarinic acetylcholine receptor M4; assay: Agonist activity at human M4 receptor expressed in HEK293T cells by BRET based Gq protein activation assay
[8] = target: T1, Muscarinic acetylcholine receptor M1; assay: Agonist activity at human M1 receptor expressed in HEK293T cells by BRET based Gq protein engagement assay
[9] = target: Muscarinic acetylcholine receptor M3 (Homo sapiens, UniProt P20309); assay: Displacement of [3H]NMS from human M3 receptor expressed in CHO cells by microplate scintillation counting based radioligand binding assay; type: cell-based
Sequence of Muscarinic acetylcholine receptor M3 (P20309 whole entry): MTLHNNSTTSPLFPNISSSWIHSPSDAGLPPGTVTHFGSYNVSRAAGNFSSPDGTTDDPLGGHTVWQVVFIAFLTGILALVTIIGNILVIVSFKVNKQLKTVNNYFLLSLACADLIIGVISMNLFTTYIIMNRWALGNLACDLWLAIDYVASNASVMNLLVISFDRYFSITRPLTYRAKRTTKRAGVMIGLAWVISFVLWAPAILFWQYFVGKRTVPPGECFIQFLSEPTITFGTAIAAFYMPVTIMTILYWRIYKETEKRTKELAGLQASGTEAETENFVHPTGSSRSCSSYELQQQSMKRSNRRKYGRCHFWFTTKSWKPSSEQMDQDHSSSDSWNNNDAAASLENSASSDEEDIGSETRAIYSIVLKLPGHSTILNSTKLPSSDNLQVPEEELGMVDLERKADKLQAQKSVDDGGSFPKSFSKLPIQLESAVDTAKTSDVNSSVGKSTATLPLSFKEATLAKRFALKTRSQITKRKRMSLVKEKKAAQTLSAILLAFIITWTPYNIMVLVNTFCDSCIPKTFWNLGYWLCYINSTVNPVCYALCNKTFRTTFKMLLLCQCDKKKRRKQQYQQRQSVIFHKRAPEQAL

[10] = target: T4, Muscarinic acetylcholine receptor M1 (Homo sapiens); assay: Agonist activity at human M1 receptor expressed in HEK293T cells by BRET based Gq protein activation assay relative to carbachol; type: cell-based; settings: HEK-293T
[11] = target: T5, Muscarinic acetylcholine receptor M4 (Homo sapiens) (UniProt P08173); assay: Antagonist activity at human M4 receptor expressed in HEK293T cells assessed as inhibition of carbachol-induced response by beta-arrestin engagement assay relative to untreated control; type: cell-based; settings: HEK-293T
T5 sequence (whole entry): T2 sequence (P08173 whole entry)

[12] = target: T2, Muscarinic acetylcholine receptor M4; assay: Displacement of [3H]NMS from human M4 receptor expressed in CHO cells by microplate scintillation counting based radioligand binding assay; type: cell-based
[13] = target: T4, Muscarinic acetylcholine receptor M1 (Homo sapiens); assay: Agonist activity at human M1 receptor expressed in HEK293T cells by BRET based Gq protein engagement assay relative carbachol; type: cell-based; settings: HEK-293T

EC50 [1]: 191 nM
Ki [2]: 316 nM
IC50 [3]: 120000 nM
Ki [4]: 204 nM
IC50 [5]: 2240 nM
Emax [6]: 32%
EC50 [7]: 275 nM
EC50 [8]: 60.3 nM
Ki [9]: 1200 nM
Emax [10]: 57%
Imax [11]: 16%
Ki [12]: 209 nM
Emax [13]: 81%
SMILES: CCCCC1CCN(CCCN2C(=O)CCc3ccccc32)CC1
